Values of other authors as cited in patent publication US20180030541A1, “METHOD FOR PREDICTING SENSITIVITY TO VASCULAR ENDOTHELIAL GROWTH FACTOR RECEPTOR INHIBITOR” (CBSBIOSCIENCE INC., priority 2014, published 2018).

Test system: hepatocellular carcinoma
Conditions: drug approved for treating hepatocellular carcinoma; cancer patients

## CNC(=O)c1cc(Oc2ccc(NC(=O)Nc3ccc(Cl)c(C(F)(F)F)c3)cc2)ccn1 [Nexavar, Sorafenib]
  side effects: very high
  treatment rate: 2-3%
